Data reported in publication PMC10239507, “Development of allosteric and selective CDK2 inhibitors for contraception with negative cooperativity to cyclin binding” (Nature Communications, 2023).

Tests used:
Assay in all cases: biochemical
[1] = target: T1, 371 kinases (kinase named in each endpoint) (Homo sapiens, UniProt Q05513); conditions: PKCZETA
T1 construct: purchased Reaction Biology

[2] = target: T2, 371 kinases (kinase named in each endpoint) (Homo sapiens, UniProt P22612); conditions: PKACG
T2 construct: purchased Reaction Biology

[3] = target: T3, 371 kinases (kinase named in each endpoint) (Homo sapiens, UniProt Q8N752); conditions: CK1A1L
T3 construct: purchased Reaction Biology
T3 sequence (Q8N752 whole entry): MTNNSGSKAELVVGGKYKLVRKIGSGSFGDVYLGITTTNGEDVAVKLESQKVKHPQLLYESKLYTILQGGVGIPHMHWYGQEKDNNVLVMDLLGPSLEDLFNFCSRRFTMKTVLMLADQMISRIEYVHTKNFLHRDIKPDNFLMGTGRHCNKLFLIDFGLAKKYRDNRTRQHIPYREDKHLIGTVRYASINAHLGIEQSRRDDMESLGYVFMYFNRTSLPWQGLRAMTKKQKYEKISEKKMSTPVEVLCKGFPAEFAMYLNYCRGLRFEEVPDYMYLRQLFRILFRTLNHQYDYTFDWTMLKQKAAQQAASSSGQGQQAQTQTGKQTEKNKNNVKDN

[4] = target: T4, 371 kinases (kinase named in each endpoint) (Homo sapiens, UniProt O60674); conditions: JAK2
T4 construct: purchased Reaction Biology
T4 sequence (O60674 whole entry): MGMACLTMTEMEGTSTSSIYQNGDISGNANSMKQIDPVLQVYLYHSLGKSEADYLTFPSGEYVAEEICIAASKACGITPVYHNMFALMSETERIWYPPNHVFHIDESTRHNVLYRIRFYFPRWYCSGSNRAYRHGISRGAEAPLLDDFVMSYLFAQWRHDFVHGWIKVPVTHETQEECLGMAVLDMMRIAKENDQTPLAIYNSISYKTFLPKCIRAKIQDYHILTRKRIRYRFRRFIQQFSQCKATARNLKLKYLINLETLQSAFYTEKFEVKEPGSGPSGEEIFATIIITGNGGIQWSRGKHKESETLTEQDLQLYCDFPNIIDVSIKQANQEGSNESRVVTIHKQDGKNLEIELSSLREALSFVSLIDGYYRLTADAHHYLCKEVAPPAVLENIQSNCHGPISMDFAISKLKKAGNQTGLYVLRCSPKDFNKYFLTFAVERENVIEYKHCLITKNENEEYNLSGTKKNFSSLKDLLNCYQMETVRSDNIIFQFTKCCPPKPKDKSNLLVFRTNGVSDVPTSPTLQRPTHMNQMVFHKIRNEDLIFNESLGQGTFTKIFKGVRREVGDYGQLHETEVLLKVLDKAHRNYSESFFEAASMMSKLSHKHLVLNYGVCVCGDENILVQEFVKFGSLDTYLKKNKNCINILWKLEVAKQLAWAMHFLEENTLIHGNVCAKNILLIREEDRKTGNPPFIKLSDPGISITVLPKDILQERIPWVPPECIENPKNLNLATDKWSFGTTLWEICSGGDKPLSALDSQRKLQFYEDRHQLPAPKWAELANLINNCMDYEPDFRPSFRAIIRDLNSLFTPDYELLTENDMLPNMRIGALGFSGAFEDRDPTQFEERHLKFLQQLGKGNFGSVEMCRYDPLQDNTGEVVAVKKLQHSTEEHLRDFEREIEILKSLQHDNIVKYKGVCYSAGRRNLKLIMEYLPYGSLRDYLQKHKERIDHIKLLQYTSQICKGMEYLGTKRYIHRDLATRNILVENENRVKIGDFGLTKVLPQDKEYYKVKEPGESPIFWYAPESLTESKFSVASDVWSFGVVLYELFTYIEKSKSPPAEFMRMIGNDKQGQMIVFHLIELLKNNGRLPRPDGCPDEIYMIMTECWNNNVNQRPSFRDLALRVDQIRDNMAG

[5] = target: T5, 371 kinases (kinase named in each endpoint) (Homo sapiens, UniProt P36888); conditions: FLT3
T5 construct: purchased Reaction Biology

[6] = target: T6, 371 kinases (kinase named in each endpoint) (Homo sapiens, UniProt Q9BZL6); conditions: PKD2/PRKD2
T6 construct: purchased Reaction Biology
T6 sequence (Q9BZL6 whole entry): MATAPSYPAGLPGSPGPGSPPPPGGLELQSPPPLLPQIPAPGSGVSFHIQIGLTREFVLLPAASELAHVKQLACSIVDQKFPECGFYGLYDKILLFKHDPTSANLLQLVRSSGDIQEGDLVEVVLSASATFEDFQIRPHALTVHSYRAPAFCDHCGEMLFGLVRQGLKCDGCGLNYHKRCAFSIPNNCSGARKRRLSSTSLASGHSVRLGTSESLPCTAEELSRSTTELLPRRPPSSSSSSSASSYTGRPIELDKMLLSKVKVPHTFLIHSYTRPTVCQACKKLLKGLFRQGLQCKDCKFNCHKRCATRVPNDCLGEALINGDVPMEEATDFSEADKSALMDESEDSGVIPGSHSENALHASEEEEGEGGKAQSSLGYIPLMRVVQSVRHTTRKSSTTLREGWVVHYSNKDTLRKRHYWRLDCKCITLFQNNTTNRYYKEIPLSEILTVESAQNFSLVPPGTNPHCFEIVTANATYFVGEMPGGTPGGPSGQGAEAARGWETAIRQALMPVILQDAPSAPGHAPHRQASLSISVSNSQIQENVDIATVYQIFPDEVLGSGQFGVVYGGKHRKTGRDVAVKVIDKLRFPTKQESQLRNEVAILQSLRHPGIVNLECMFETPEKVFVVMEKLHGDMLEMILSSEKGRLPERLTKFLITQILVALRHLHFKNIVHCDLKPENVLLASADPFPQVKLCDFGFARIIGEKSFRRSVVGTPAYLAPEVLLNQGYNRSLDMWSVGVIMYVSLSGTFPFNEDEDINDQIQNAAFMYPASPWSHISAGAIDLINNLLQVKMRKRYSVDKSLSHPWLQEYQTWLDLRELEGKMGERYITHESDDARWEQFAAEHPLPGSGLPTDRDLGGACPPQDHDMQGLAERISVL

[7] = target: T7, 371 kinases (kinase named in each endpoint) (Homo sapiens, UniProt Q9Y4K4); conditions: KHS/MAP4K5
T7 construct: purchased Reaction Biology

[8] = target: T8, 371 kinases (kinase named in each endpoint) (Homo sapiens, UniProt Q9Y2U5); conditions: MEKK2
T8 construct: purchased Reaction Biology

[9] = target: T9, 371 kinases (kinase named in each endpoint) (Homo sapiens, UniProt O95819); conditions: HGK/MAP4K4
T9 construct: purchased Reaction Biology

[10] = target: T10, 371 kinases (kinase named in each endpoint) (Homo sapiens, UniProt Q9HCP0); conditions: CK1G1
T10 construct: purchased Reaction Biology

[11] = target: T11, 371 kinases (kinase named in each endpoint) (Homo sapiens, UniProt Q9H422); conditions: HIPK3
T11 construct: purchased Reaction Biology

[12] = target: T12, 371 kinases (kinase named in each endpoint) (Homo sapiens, UniProt P57059); conditions: SIK1
T12 construct: purchased Reaction Biology

[13] = target: T13, 371 kinases (kinase named in each endpoint) (Homo sapiens, UniProt P49840); conditions: GSK3a
T13 construct: purchased Reaction Biology

[14] = target: T14, 371 kinases (kinase named in each endpoint) (Homo sapiens, UniProt P06241); conditions: FYN
T14 construct: purchased Reaction Biology

[15] = target: T15, 371 kinases (kinase named in each endpoint) (Homo sapiens, UniProt Q15569); conditions: TESK1
T15 construct: purchased Reaction Biology

[16] = target: T16, 371 kinases (kinase named in each endpoint) (Homo sapiens, UniProt P50750)
T16 construct: purchased Reaction Biology
T16 sequence (P50750 whole entry): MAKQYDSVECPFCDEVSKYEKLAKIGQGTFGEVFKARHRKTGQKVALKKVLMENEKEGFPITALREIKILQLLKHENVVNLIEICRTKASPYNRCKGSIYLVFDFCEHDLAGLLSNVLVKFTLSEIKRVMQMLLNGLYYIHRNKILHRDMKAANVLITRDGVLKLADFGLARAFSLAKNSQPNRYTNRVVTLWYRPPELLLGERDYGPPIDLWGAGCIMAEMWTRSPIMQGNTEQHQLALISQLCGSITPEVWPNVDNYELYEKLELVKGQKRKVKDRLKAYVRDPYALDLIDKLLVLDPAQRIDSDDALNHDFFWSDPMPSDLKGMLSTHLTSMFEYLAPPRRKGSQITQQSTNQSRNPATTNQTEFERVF

[17] = target: T17, 371 kinases (kinase named in each endpoint) (Homo sapiens, UniProt P34947); conditions: GRK5
T17 construct: purchased Reaction Biology

[18] = target: T18, 371 kinases (kinase named in each endpoint) (Homo sapiens, UniProt Q96RG2); conditions: PASK
T18 construct: purchased Reaction Biology

[19] = target: T19, 371 kinases (kinase named in each endpoint) (Homo sapiens, UniProt P16591); conditions: FER
T19 construct: purchased Reaction Biology

[20] = target: T20, 371 kinases (kinase named in each endpoint) (Homo sapiens, UniProt Q9H2X6); conditions: HIPK2
T20 construct: purchased Reaction Biology

[21] = target: T21, 371 kinases (kinase named in each endpoint) (Homo sapiens, UniProt O94804); conditions: LOK/STK10
T21 construct: purchased Reaction Biology

[22] = target: T22, 371 kinases (kinase named in each endpoint) (Homo sapiens, UniProt P49137); conditions: MAPKAPK2
T22 construct: purchased Reaction Biology

[23] = target: T23, 371 kinases (kinase named in each endpoint) (Homo sapiens, UniProt P49674); conditions: CK1EPSILON
T23 construct: purchased Reaction Biology

[24] = target: T24, 371 kinases (kinase named in each endpoint) (Homo sapiens, UniProt Q9H093); conditions: SNARK/NUAK2
T24 construct: purchased Reaction Biology

[25] = target: T25, 371 kinases (kinase named in each endpoint) (Homo sapiens, UniProt Q56UN5); conditions: YSK4/MAP3K19
T25 construct: purchased Reaction Biology

[26] = target: T26, 371 kinases (kinase named in each endpoint) (Homo sapiens, UniProt Q15375); conditions: EPHA7
T26 construct: purchased Reaction Biology

[27] = target: T27, 371 kinases (kinase named in each endpoint) (Homo sapiens, UniProt Q00534)
T27 construct: purchased Reaction Biology
T27 sequence (Q00534 whole entry): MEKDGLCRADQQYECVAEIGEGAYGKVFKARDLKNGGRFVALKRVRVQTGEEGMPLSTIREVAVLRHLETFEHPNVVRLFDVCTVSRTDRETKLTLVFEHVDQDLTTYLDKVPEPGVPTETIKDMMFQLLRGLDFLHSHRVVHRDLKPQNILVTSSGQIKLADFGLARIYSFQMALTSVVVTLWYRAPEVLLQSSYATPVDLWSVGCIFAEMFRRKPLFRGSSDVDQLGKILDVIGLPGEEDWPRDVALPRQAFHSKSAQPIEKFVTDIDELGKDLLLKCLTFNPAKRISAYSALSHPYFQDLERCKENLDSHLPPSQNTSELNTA

[28] = target: T28, 371 kinases (kinase named in each endpoint) (Homo sapiens, UniProt Q16539); conditions: P38A/MAPK14
T28 construct: purchased Reaction Biology

[29] = target: T29, 371 kinases (kinase named in each endpoint) (Homo sapiens, UniProt P53667); conditions: LIMK1
T29 construct: purchased Reaction Biology

[30] = target: T30, 371 kinases (kinase named in each endpoint) (Homo sapiens, UniProt Q9UEE5); conditions: DRAK1/STK17A
T30 construct: purchased Reaction Biology

[31] = target: T31, 371 kinases (kinase named in each endpoint) (Homo sapiens, UniProt P68400); conditions: CK2A
T31 construct: purchased Reaction Biology
T31 sequence (P68400 whole entry): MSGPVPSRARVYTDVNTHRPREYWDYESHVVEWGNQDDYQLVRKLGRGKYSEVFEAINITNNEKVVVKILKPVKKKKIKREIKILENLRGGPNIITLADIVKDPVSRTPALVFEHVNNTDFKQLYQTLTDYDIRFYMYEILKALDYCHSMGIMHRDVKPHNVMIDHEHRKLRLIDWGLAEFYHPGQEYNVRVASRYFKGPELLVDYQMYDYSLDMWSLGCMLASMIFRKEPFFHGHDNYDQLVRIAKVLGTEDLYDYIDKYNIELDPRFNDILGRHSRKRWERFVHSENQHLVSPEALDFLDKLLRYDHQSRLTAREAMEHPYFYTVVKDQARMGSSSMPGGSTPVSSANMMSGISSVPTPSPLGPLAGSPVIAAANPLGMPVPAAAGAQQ

[32] = target: T32, 371 kinases (kinase named in each endpoint) (Homo sapiens, UniProt Q13873); conditions: BMPR2
T32 construct: purchased Reaction Biology

[33] = target: T33, 371 kinases (kinase named in each endpoint) (Homo sapiens, UniProt P07949); conditions: RET
T33 construct: purchased Reaction Biology
T33 sequence (P07949 29-1114): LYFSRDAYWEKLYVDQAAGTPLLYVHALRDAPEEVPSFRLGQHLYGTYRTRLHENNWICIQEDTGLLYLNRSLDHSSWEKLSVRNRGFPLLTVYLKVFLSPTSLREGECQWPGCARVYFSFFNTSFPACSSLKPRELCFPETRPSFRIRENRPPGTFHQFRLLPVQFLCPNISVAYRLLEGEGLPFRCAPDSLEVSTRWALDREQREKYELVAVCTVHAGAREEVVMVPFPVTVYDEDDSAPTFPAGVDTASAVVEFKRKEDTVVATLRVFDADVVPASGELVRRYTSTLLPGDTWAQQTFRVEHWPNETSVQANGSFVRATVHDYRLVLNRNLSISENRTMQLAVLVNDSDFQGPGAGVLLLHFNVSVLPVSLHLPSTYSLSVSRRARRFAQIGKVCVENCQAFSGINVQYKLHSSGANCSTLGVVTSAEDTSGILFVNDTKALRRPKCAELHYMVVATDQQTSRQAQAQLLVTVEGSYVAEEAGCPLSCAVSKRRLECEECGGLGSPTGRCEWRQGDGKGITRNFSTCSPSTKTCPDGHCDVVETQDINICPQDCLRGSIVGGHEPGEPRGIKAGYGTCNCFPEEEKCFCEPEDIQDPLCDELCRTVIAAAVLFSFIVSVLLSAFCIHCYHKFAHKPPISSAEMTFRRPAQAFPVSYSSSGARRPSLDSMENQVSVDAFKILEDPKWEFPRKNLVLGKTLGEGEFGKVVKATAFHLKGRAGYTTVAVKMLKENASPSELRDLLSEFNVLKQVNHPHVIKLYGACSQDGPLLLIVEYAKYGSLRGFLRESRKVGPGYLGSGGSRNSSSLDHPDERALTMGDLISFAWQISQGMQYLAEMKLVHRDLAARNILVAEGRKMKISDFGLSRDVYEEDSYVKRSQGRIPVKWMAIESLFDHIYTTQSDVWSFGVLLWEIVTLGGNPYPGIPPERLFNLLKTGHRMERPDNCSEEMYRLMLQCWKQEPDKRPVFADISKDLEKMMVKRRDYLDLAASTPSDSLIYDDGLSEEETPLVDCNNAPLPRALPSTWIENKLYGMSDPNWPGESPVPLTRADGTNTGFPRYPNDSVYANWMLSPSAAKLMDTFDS

[34] = target: T34, 371 kinases (kinase named in each endpoint) (Homo sapiens, UniProt O95747); conditions: OSR1/OXSR1
T34 construct: purchased Reaction Biology

[35] = target: T35, 371 kinases (kinase named in each endpoint) (Homo sapiens, UniProt Q9NR20); conditions: DYRK4
T35 construct: purchased Reaction Biology
T35 sequence (Q9NR20 whole entry): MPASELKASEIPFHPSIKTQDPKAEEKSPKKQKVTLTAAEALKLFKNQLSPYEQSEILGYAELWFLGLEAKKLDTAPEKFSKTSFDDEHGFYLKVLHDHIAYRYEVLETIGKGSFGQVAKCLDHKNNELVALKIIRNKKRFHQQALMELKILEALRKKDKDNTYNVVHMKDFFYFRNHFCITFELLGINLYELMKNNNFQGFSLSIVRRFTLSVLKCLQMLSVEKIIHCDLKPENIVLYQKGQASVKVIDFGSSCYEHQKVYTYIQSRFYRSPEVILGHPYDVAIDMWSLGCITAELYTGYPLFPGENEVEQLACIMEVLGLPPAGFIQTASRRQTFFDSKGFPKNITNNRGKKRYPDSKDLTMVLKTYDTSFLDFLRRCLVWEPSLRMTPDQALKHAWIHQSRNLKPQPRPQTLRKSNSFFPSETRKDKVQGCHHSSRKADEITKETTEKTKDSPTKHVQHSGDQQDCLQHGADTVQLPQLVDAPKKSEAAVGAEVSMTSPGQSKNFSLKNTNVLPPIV

[36] = target: T36, 371 kinases (kinase named in each endpoint) (Homo sapiens, UniProt Q04771); conditions: ALK2/ACVR1
T36 construct: purchased Reaction Biology

Compound `O=C(O)c1cc(C(F)(F)F)ccc1NCCc1c[nH]c2cc(Br)ccc12` [Compound 5, 2-((2-(6-Bromo-1H-indol-3-yl)ethyl)amino)−5-(trifluoromethyl)benzoic Acid] has an activity at 10 µM [1] of 126.6 ± 0.3%, an activity at 10 µM [2] of 76.2 ± 2.6% and an activity at 10 µM [3] of 90.8 ± 1.1%. For the same compound, the activity at 10 µM [4] was 78.8 ± 1.9%, the activity at 10 µM [5] was 95.2 ± 1.6% and the activity at 10 µM [6] was 84.1 ± 0.4%. The activity at 10 µM [7] was 72 ± 2.8%, the activity at 10 µM [8] was 107.9 ± 0.2% and the activity at 10 µM [9] was 50.4 ± 0.4%. It also gave an activity at 10 µM [10] of 96.2 ± 0.3%, an activity at 10 µM [11] of 86.3 ± 2.3% and an activity at 10 µM [12] of 69.3 ± 1%. It also gave an activity at 10 µM [13] of 67.6 ± 0.3%, an activity at 10 µM [14] of 86.4 ± 1.8% and an activity at 10 µM [15] of 82.4 ± 1.3%. The activity at 10 µM ([16]; CDK9/CYCLIN K) was 88.6 ± 0.7%, the activity at 10 µM ([16]; CDK9/CYCLIN T1) was 81.5 ± 1.5% and the activity at 10 µM ([16]; CDK9/CYCLIN T2) was 84.5 ± 0.4%. The activity at 10 µM [17] was 101 ± 1.1%, the activity at 10 µM [18] was 95.2 ± 2.9% and the activity at 10 µM [19] was 89.6 ± 2%. For the same compound, the activity at 10 µM [20] was 79.9 ± 0.7%, the activity at 10 µM [21] was 88.1 ± 0.3% and the activity at 10 µM [22] was 95.2 ± 1.8%. For the same compound, the activity at 10 µM [23] was 60.1 ± 1.8%, the activity at 10 µM [24] was 87.7 ± 2.3% and the activity at 10 µM [25] was 110.3 ± 0.7%. The activity at 10 µM [26] was 82.8 ± 2.2%, the activity at 10 µM ([27]; CDK6/CYCLIN D1) was 87.9 ± 0.1% and the activity at 10 µM ([27]; CDK6/CYCLIN D2) was 44.6 ± 0.5%. The activity at 10 µM ([27]; CDK6/CYCLIN D3) was 60.9 ± 1.2%, the activity at 10 µM [28] was 124.8 ± 0.6% and the activity at 10 µM [29] was 84.2%. The activity at 10 µM [30] was 109 ± 2.6%, the activity at 10 µM [31] was 59.1 ± 0.1% and the activity at 10 µM [32] was 88 ± 5.4%. It also gave an activity at 10 µM [33] of 92.7 ± 3.3%, an activity at 10 µM [34] of 59.4 ± 2.8% and an activity at 10 µM [35] of 96.9 ± 2.5%. It also gave an activity at 10 µM [36] of 74.1 ± 1.8%.
